Data from ChEMBL document CHEMBL5252532, “Oxindole: A chemical prism carrying plethora of therapeutic benefits” (Eur J Med Chem, 2016).
Values after ≈ are worked out from the molar mass of the structure shown.

Columns and labels:
GAMG = assay: Anticancer activity against human GAMG cells assessed as cell growth inhibition; type: functional, cell-based
SK-N-BE(2) = assay: Anticancer activity against human SKNBE2 cells assessed as cell growth inhibition; type: functional, cell-based
MCF7 = assay: Growth inhibition of human MCF7 cells; type: functional
Staphylococcus aureus = assay: Antibacterial activity against Staphylococcus aureus assessed as bacterial growth inhibition; type: functional
Escherichia coli = assay: Antibacterial activity against Escherichia coli assessed as bacterial growth inhibition; type: functional
Streptococcus pyogenes = assay: Antibacterial activity against Streptococcus pyogenes assessed as bacterial growth inhibition; type: functional
Pseudomonas aeruginosa = assay: Antibacterial activity against Pseudomonas aeruginosa assessed as bacterial growth inhibition; type: functional
[1] = biological target: Aldo-keto reductase family 1 member B1 (Homo sapiens, UniProt P15121); assay: Inhibition of AR (unknown origin) assessed as glycation activity
[2] = biological target: Vascular endothelial growth factor receptor 1 (Homo sapiens, UniProt P17948); assay: Inhibition of VEGFR1 (unknown origin) in presence of ATP
[3] = biological target: High affinity nerve growth factor receptor (Homo sapiens, UniProt P04629); assay: Inhibition of TrkA (unknown origin)
MGC-803 = assay: Anticancer activity against human MGC-803 cells assessed as cell growth inhibition incubated for 24 hrs by MTT assay; type: functional, cell-based; details: MGC-803, 24 h
T-24 = assay: Anticancer activity against human T24 cells assessed as cell growth inhibition incubated for 24 hrs by MTT assay; type: functional, cell-based; details: T-24, 24 h
MDA-MB-435 = assay: Anticancer activity against human MDA-MB-435 cells assessed as cell growth inhibition by MTT assay; type: functional, cell-based
RKO = assay: Anticancer activity against human RKO cells assessed as cell growth inhibition by MTT assay; type: functional, cell-based
[4] = test system: Mycobacterium tuberculosis; assay: Antitubercular activity against Mycobacterium tuberculosis H37Rv strain assessed as bacterial growth inhibition; type: functional
[5] = biological target: Cyclin-dependent kinase 2 (Homo sapiens, UniProt P24941); assay: Inhibition of human CDK2 […]-Pro-Met-Ser-Pro-Lys-LysLys-Ala-CONH2 peptide as substrate incubated for 30 to 60 mins by scintillation counter analysis
[6] = biological target: Cyclin-dependent kinase 1 (Homo sapiens, UniProt P06493); assay: Inhibition of human CDK1 using Biotinaminohexyl-Ala-Arg-Arg-Pro-Met-Ser-Pro-Lys-LysLys-Ala-CONH2 peptide as substrate incubated for 20 to 30 mins by scintillation counter analysis
A549 = assay: Anticancer activity against human A549 cells assessed as cell growth inhibition; type: functional, cell-based
Homo sapiens = species: Homo sapiens; assay: Inhibition of ERK (unknown origin) at 100 uM by western blot assay relative to control

Chain of High affinity nerve growth factor receptor (P04629 whole entry): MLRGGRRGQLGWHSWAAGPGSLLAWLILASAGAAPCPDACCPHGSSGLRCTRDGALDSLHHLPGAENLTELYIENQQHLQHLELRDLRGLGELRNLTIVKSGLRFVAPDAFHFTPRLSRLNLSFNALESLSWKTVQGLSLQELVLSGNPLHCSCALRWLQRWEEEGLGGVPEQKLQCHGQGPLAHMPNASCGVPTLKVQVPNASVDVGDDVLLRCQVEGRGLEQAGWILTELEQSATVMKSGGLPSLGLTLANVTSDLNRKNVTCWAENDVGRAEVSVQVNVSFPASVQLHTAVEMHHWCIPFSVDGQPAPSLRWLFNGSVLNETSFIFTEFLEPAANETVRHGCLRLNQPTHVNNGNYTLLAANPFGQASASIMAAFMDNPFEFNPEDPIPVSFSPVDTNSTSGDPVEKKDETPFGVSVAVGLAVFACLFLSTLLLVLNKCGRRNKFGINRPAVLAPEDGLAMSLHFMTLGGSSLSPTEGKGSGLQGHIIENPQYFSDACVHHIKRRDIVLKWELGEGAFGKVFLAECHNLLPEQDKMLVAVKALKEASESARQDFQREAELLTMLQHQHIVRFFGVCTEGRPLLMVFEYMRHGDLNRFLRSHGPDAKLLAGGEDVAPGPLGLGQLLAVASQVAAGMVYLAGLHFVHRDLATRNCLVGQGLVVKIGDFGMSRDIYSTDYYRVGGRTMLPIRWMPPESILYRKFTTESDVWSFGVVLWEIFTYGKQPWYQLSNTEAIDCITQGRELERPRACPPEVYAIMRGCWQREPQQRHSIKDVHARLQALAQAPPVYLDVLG
Chain of Vascular endothelial growth factor receptor 1 (P17948 whole entry): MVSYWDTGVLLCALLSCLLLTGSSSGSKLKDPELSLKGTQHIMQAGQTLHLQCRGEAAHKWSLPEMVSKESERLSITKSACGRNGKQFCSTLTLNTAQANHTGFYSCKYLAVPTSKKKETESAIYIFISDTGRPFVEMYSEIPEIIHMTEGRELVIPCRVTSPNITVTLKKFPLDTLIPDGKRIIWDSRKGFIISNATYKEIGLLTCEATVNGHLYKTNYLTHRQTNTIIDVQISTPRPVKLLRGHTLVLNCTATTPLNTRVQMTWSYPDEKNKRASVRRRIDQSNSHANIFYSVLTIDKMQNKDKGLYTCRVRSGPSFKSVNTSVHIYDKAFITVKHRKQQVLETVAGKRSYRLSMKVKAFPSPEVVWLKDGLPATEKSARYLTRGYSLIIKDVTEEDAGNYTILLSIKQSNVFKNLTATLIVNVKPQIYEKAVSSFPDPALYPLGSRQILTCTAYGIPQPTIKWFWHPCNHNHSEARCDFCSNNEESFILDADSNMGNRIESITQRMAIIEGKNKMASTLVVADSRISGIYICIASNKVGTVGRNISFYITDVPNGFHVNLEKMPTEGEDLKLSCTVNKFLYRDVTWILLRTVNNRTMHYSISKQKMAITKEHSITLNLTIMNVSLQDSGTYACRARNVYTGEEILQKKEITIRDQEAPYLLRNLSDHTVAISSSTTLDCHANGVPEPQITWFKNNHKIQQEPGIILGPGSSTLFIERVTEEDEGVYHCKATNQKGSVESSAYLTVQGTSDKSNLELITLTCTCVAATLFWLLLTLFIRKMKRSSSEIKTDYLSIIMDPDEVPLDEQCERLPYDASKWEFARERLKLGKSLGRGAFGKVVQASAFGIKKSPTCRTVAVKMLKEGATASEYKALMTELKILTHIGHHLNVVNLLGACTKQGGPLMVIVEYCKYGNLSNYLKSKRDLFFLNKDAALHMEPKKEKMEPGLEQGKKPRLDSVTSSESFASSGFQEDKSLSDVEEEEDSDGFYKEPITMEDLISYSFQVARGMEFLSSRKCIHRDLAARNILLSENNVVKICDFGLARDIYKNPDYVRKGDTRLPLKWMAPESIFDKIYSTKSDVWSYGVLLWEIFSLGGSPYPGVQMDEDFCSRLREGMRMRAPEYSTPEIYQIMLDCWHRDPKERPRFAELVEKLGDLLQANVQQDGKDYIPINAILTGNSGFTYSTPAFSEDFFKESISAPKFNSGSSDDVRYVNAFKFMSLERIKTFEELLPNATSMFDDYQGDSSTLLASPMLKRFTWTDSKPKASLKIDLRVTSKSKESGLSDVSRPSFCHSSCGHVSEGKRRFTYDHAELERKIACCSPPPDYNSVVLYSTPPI
Chain of Cyclin-dependent kinase 1 (P06493 whole entry): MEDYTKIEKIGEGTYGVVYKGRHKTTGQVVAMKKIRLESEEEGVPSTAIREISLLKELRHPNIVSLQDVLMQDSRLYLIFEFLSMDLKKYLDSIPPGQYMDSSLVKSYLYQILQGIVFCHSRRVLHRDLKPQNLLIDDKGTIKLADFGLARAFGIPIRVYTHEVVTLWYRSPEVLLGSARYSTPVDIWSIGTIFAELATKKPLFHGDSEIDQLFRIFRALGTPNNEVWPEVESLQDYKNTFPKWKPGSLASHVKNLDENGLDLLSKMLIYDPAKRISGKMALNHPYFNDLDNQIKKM

**Q.** With COC(=O)C1=CO[C@@H](C)[C@H]2CN3CC[C@]4(C(=O)Nc5ccccc54)[C@@H]3C[C@H]12 as the compound, how does the IC50 (GAMG) read?
**A.** 12.3 µM

**Q.** What about the IC50 (SK-N-BE(2)) of the same compound?
**A.** 20 µM

**Q.** With CN1C(=O)O[C@]2(C[C@H]1c1ccccc1)C(=O)Nc1ccccc12 as the compound, how does the GI50 (MCF7) read?
**A.** 2.6 µM

**Q.** With Cc1ccc(S(=O)(=O)N2CCN(c3ccc(/C=C4/C(=O)Nc5ccccc54)cc3)CC2)cc1 as the compound, how does the MIC (Staphylococcus aureus; Staphylococcus aureus, read-out: MIC) read?
**A.** 25 µg/mL (≈ 54.4 µM)

**Q.** And the MIC (Escherichia coli; Escherichia coli, read-out: MIC)?
**A.** 25 µg/mL (≈ 54.4 µM)

**Q.** What about the MIC (Streptococcus pyogenes) of the same compound?
**A.** 25 µg/mL (≈ 54.4 µM)

**Q.** And the MIC (Pseudomonas aeruginosa)?
**A.** 25 µg/mL (≈ 54.4 µM)

**Q.** For C[C@@H]1O[C@@H](OC[C@H]2O[C@@H](Oc3c(-c4ccc(O)c(O)c4)oc4cc(O)cc(O)c4c3=O)[C@H](O)[C@@H](O)[C@@H]2O)[C@H](O)[C@H](O)[C@H]1O [RUTIN], which IC50 [1] is on record?
**A.** 295 µM

**Q.** Which IC50 [2] does the source give for Cc1cc(CCC(=O)O)c(/C=C2\C(=O)Nc3ccccc32)[nH]1 here?
**A.** 0.096 µM

**Q.** O=C1Nc2ccccc2/C1=C/Nc1ccc(-n2nccn2)cc1 was tested. Which IC50 [3] did it give?
**A.** 0.008 µM

**Q.** With CC(=O)O[C@H]1CC[C@@]2(C)C(=CC[C@@H]3[C@@H]2CC[C@]2(C)C4=C(C#N)C(=N)OC5(C(=O)N(Cc6ccc(C)cc6)c6ccccc65)C4C[C@@H]32)C1 (stereo partly specified) as the compound, how does the IC50 (MGC-803) read?
**A.** 8.45 µM

**Q.** And the IC50 (T-24)?
**A.** 4.43 µM

**Q.** O=C1Nc2ccccc2/C1=C/c1cccc(Cl)c1 was tested. Which IC50 [1] did it give?
**A.** 150 µM

**Q.** With COc1cc[nH]c1/C=C1\C(=O)Nc2ccc([N+](=O)[O-])c(N3CC[C@@H](N)C3)c21 as the compound, how does the IC50 (MDA-MB-435) read?
**A.** < 10 µM

**Q.** And the IC50 (RKO)?
**A.** < 10 µM

**Q.** Which MIC (Staphylococcus aureus) does the source give for CC1(C)CC(=O)C2=C(C1)NC(=S)NC21C(=O)Nc2ccc(Br)cc21 (stereo unspecified) here?
**A.** 500 µg

**Q.** What about the MIC (Escherichia coli) of the same compound?
**A.** 500 µg

**Q.** How did the MIC [4] turn out when Cc1ccc(CN2C(=O)/C(=N/NC(=O)c3ccccc3)c3cc(C)ccc32)cc1 was run?
**A.** 25 µg/mL (≈ 65.2 µM)

**Q.** How did the IC50 [5] turn out when O=C1Nc2ccc3ncsc3c2/C1=C/Nc1ccc(S(=O)(=O)NCCOCCO)cc1 was run?
**A.** 0.012 µM

**Q.** And the IC50 [6]?
**A.** 0.00054 µM

**Q.** For O=C1Nc2ncccc2C12CCN(Cc1ccccc1OC(F)(F)F)CC2, which IC50 (A549) is on record?
**A.** 0.05 µM

**Q.** O=C1Cc2cc(O)ccc2N1 was tested. Which inhibition (Homo sapiens) did it give?
**A.** 35%

**Q.** With O=C1Nc2ccccc2C1=O as the compound, how does the inhibition (Homo sapiens) read?
**A.** 35%

**Q.** Which IC50 [1] does the source give for Cc1ccc(O)c(/C=C2\C(=O)Nc3ccccc32)c1 here?
**A.** 195 µM

**Q.** How did the IC50 (MGC-803) turn out when CC(=O)O[C@H]1CC[C@@]2(C)C(=CC[C@@H]3[C@@H]2CC[C@]2(C)C4=C(C#N)C(=N)OC5(C(=O)N(Cc6c(F)cccc6F)c6ccccc65)C4C[C@@H]32)C1 (stereo partly specified) was run?
**A.** 8.45 µM

**Q.** What about the IC50 (T-24) of the same compound?
**A.** 4.43 µM
